Measurements taken from ChEMBL document CHEMBL1139468, “Virtual screening of novel CB2 ligands using a comparative model of the human cannabinoid CB2 receptor” (J Med Chem, 2005).
Active and inactive are the calls of the source. The calls are words filed in the database; no cut-off is given here.

Legend:
Cannabinoid receptor 2 = Cannabinoid receptor 2 (Homo sapiens, UniProt P34972); experiment: Agonist activity at human CB2 receptor transfected in CHO cells by [35]GTPgamma binding assay; type: cell-based
Cannabinoid receptor 2, sequence (P34972 whole entry): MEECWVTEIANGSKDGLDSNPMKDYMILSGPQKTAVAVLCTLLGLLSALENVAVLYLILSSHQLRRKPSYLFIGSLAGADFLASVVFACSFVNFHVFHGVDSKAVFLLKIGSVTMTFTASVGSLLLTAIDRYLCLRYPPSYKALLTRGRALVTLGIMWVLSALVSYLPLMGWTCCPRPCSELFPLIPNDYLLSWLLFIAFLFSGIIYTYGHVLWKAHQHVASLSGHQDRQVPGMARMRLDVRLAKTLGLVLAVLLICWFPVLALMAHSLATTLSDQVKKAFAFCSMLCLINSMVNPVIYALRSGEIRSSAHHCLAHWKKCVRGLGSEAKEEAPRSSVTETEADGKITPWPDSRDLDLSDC

[1] = biological target: Cannabinoid receptor 1 (Rattus norvegicus) (UniProt P20272); experiment: Activity at CB1 receptor in rat cerebellar membrane by [35]GTPgamma binding assay; type: functional, cell membranes; details: Cerebellum
Cannabinoid receptor 1 (Rattus norvegicus), sequence (P20272 whole entry): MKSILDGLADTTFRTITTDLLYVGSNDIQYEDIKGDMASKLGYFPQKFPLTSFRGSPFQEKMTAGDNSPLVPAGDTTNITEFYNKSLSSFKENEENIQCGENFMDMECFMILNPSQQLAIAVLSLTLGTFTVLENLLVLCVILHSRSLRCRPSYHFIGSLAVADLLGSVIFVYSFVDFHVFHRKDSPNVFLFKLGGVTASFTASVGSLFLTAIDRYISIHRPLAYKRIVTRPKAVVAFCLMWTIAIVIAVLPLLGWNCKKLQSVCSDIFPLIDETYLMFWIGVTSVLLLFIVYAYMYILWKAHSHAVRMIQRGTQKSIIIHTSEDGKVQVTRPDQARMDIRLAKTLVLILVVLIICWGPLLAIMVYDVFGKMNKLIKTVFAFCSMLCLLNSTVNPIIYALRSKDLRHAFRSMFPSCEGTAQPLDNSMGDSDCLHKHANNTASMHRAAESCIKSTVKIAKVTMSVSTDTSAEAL

[2] = biological target: T1, Fatty-acid amide hydrolase 1 (Homo sapiens) (UniProt O00519); experiment: Inhibition of FAAH
T1 sequence (whole entry): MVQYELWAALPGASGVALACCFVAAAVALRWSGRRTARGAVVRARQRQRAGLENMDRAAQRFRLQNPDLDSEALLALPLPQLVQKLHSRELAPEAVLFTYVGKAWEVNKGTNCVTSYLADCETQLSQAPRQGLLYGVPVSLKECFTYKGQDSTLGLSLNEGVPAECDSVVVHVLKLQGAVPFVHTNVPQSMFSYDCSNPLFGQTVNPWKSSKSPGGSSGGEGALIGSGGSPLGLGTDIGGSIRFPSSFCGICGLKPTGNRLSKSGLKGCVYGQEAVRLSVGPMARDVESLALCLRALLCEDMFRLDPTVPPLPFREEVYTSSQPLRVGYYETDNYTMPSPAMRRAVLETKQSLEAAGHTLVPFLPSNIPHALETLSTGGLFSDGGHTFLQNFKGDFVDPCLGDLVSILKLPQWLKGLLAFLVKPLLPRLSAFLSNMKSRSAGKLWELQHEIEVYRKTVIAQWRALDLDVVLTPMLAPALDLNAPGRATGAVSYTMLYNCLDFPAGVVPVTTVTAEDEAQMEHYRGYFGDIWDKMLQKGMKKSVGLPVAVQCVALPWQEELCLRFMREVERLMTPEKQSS

[3] = Inhibition of methionine gamma-lyase

Row | Compound | EC50 (Cannabinoid receptor 2) | Emax (Cannabinoid receptor 2) | Activity [1] | Activity [2] | Activity [3]
1 | O=C(c1cccc(C(F)(F)F)c1)c1nccc2ccccc12 | 5.01 µM | 53% | inactive | inactive | inactive
2 | CCCCCCC(C)(C)c1cc(O)c2c(c1)OC(C)(C)[C@H]1CC=C(CO)C[C@H]21 | – | 103% | – | – | –
